Values quoted from earlier work as cited in publication PMC4278936 (Journal of computer-aided molecular design, 2014).

Target: T1, PfENR (Plasmodium falciparum, UniProt Q9BH77)
T1 sequence (Q9BH77 22-432): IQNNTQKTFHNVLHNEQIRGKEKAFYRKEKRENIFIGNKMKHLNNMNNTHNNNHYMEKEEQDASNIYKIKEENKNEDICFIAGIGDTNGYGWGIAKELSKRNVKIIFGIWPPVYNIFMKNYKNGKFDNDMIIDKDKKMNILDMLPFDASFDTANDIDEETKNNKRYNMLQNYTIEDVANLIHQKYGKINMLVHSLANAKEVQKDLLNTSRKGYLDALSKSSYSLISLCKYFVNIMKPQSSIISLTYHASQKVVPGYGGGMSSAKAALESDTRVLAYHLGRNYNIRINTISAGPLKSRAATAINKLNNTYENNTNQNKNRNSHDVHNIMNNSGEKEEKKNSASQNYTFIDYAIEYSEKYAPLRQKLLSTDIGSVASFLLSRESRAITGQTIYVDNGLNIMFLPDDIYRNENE
Conditions: ref [32], [60]

Oc1cc(Cl)ccc1Oc1ccc(Cl)cc1Cl [compound 1, Triclosan]
Concentration range in which TCL inhibits PfENR: picomolar to nanomolar range
